Laboratory results from a melting point compilation (Tetko et al.).

| Structure (SMILES) | melting point [°C] |
| --- | --- |
| O=[N+]([O-])c1c[nH]cn1 | 303 |
| N#Cc1ccnc(N2CCCCC2)c1 | 55 to 57 |
| CCOC(=O)c1c(N)sc2c1CCN(C(=O)OC(C)(C)C)C2 | 153 |
| CC(C)(C)C(=O)Nc1ccncc1C(=O)O | 250 to 254 |
| O=C1OC(=Cc2ccccc2)c2ccccc21 | 100 |
| Nc1ccc(I)cc1 | 67.5 |
| Nc1cccc(F)c1C(=O)O | 170 to 172 |
| O=[N+]([O-])c1cc2nccnc2cc1Br | 221 to 227 |
| NNC(=O)c1cccnc1 | 162 |
| CCCCCCOC(=O)c1ccccc1C(=O)OCCCCCC | -58 |
| COC(=O)[C@H](C)NC(=O)c1ccccc1 | 61 to 63 |
| O=C(O)C(CO)c1ccccc1 (stereo not given) | 118 |
| COc1ccc(C(O)c2ccccc2)cc1 (stereo not given) | 67 |
| Cc1cc2ccccc2c(Br)c1C | 63 |
| O=[N+]([O-])c1ccc2c(c1)OCCOCCOc1ccccc1OCCOCCO2 | 190 to 195 |
| CN(C)S(=O)(=O)N(SC(F)(Cl)Cl)c1ccccc1 | 106 |
| Cc1ccc(C(N)=O)cn1 | 197 |
| Cc1oc(-c2ccccc2)nc1CCO | 72 to 75 |
| Cc1ccc(C)c(O)c1C | 58 |
| CCOC(=O)C(C=Cc1cccc(C=CC(C(=O)OCC)C(=O)OCC)c1)C(=O)OCC | 100 to 102 |
| O=C(O)c1ccccc1/N=N/C1SC(=S)N(c2ccccc2)C1=O (stereo not given) | 199 |
| O=C(O)c1ccc2occc2c1 | 189 to 190 |
| Cc1onc(-c2ccccc2)c1C=O | 41 to 43 |

| Structure (SMILES) | melting point [°C] |
| --- | --- |
| c1ccc(-c2nc3ccccc3nc2-c2ccc3c4c(cccc24)CC3)cc1 | 162 |
| O=C(O)c1ccc(F)cc1C(F)(F)F | 123 |
| CC(=O)n1c(C)cc2cc3c(cc21)=NC(C)C=3 (stereo not given) | 279 |
| CN(C)C(=O)Nc1ccc(Oc2ccc(Cl)cc2)cc1 | 151 |
| CC(Cc1ccccc1)(C(=O)O)C(=O)O | 132 |
| NC(=O)C(N)c1ccccc1 (stereo not given) | 125 to 129 |
| CC(C)(C)NC(=O)C1CCC2C3CCC4NC(=O)C=CC4(C)C3CCC12C (stereo not given) | 253 |
| O=C(C1=NOC2C(=O)N(c3cc(Cl)ccc3Cl)C(=O)C12)c1cccs1 (stereo not given) | 221 |
| O=C(O)C=Cc1ccc(F)c(C(F)(F)F)c1 | 143 |
| O=c1c2cc(F)ccc2nc(-n2cncn2)n1-c1ccc(Cl)cc1Cl | 192 |
| Cn1c(Cl)cc(=O)n(C)c1=O | 110 |
| Cn1c2ccccc2c2cc([N+](=O)[O-])ccc21 | 172 to 174 |
| CN1CC(C(=O)NC2(C)OC3(O)C4CCCN4C(=O)C(Cc4ccccc4)N3C2=O)C=C2c3cccc4[nH]cc(c34)CC21 (stereo not given) | 214 |
| CC/C(=C(/CC)c1ccc(O)cc1)c1ccc(O)cc1 | 172 |
| CC(=CNNc1nc(C)cc(C)n1)c1cccnc1 | 147 to 150 |
| CC(CO)CO | -91 |
| O=C(N[C@H](Cc1ccc(Cl)cc1)C(=O)O)OCC1c2ccccc2-c2ccccc21 | 147 |
| O=C1NN(c2ccccc2)C(=O)C1=Cc1ccc(F)cc1 | 300 |
| ClCc1cc(Br)cc2c1OCOC2 | 103 |
| CCOC(=O)c1ccc(F)cc1 | 26 |
| O=S(=O)(Cl)c1ccc(-c2ccc(Cl)cc2)cc1 | 109 to 110 |
| CC(=O)Oc1ccc(N/C=C2\C(=O)C3(C)CCC2C3(C)C)cc1 (stereo not given) | 222 |
| CCCCCCCCCCCCCCCCCC(=O)OCCC | 28.9 |

| Structure (SMILES) | melting point [°C] |
| --- | --- |
| OCCCN1CCNCC1 | 50 |
| O=[N+]([O-])c1ccc(CN2CCOCC2)cc1 | 79.6 to 80 |
| COc1ccc(C2Nc3nc(C(F)(F)F)nn3C(N)=C2C#N)cc1 (stereo not given) | 211 |
| CCOC(=O)c1c(SC)nn(C(=O)c2ccc([N+](=O)[O-])cc2)c1N | 158 |
| Cc1cc(C)c(N=C=S)c(C)c1 | 63 to 64 |
| Cc1nc(-c2ccccc2)sc1CO | 99 to 102 |
| CCOC(=O)c1sc(SC)c2c1CCCC2O (stereo not given) | 119 to 122 |
| Cc1ccc(S(=O)(=O)OCCCCCCOS(=O)(=O)c2ccc(C)cc2)cc1 | 70.5 to 73 |
| Cc1ccccc1/C=C(\C#N)c1nc2ccccc2s1 | 148 |
| CC(NC(C)(C)C)C(=O)c1cccc(Cl)c1 (stereo not given) | 234 |
| CN(C)c1ccc(N=Nc2ccccc2)cc1 | 117 |
| CC(=O)OCC(=O)C1(O)CCC2C3CCC4=CC(=O)CCC4(C)C3C(=O)CC21C (stereo not given) | 222 |
| CCOC(C)=NOc1ccc([N+](=O)[O-])cc1[N+](=O)[O-] | 112 |
| COC(=O)C1=C(C(=O)OC)C2(COC(=O)C(C)NC(C)=O)c3ccccc3C1c1ccccc12 (stereo not given) | 180 |
| CCCOC(=O)C(C)c1ccc(-c2ccccc2)c(F)c1 (stereo not given) | > 20 |
| CCOC=C(C#N)S(=O)(=O)Cc1ccco1 | 98 to 100 |
| Sc1nc2ccccc2o1 | 192 to 195 |
| N#C[C@@H]1CCCC[C@H]1O (relative stereo) | 46 to 49 |
| CC1C(=O)C23C(O)CC4C(C)(C)CCC(O)C4(CO)C2C(O)CC1C3O (stereo not given) | 278 |
| O=[N+]([O-])c1ccc(Oc2c(Cl)cccc2Cl)c(Cl)c1 | 136 to 138 |
| Oc1ccnc2cc(Cl)ccc12 | 280 |
| CC1(C)Cc2cccc(CO)c2O1 | 59 to 60 |
| Clc1ncc(Br)c(Cl)n1 | 30 |

| Structure (SMILES) | melting point [°C] |
| --- | --- |
| NC(=O)CCSCCC(N)=O | 183 to 186 |
| Clc1cc2c(oc3c(Cl)c(Cl)c(Cl)c(Cl)c32)c(Cl)c1Cl | 233 |
| Clc1cc(Cl)c2oc3cc(Cl)c(Cl)cc3c2c1 | 202 |
| O=C(O)CCCC1CCCCC1 | 31 |
| Cc1cc(N)c(Cl)cc1F | 69 to 71 |
| N#Cc1cccc(F)c1 | -16 |
| CC(O)=NNC(N)=O | 165 |
| O=C1CC(=O)N(c2ccccc2)N1 | 191 |
| O=[N+]([O-])c1ccccc1/C=C/c1ccccn1 | 214 |
| O=C(O)CCc1ccc2c(c1)NC(=O)CC2 | 240 |
| Cc1cc(=O)oc2cc(N)ccc12 | 227 |
| CC(CCC(=O)O)C1CCC2C3CCC4C(Br)C(=O)CCC4(C)C3CCC12C (stereo not given) | 190 |
| Clc1nccc2occc12 | 41 to 42 |
| COc1ccc2cc(CCC(C)=O)ccc2c1 | 80 |
| NC(=O)C#CC#CC#CCO | 140 |
| CC12CCC(O)CC1CCC1C2CC(O)C2(C)C(C3=CC(=O)OC3)CCC12O (stereo not given) | 222 |
| CC(C)(C)c1ncc(C(=O)Nc2cccc(Br)c2)nc1Cl | 105 |
| CC1=Cc2ccccc2C1O (stereo not given) | 87 |
| O=Cc1ccc2c(c1)C(=O)c1c(Cl)c(Cl)c(Cl)c(Cl)c1C2=O | 183 |
| O=C1/C(=C/c2ccc([N+](=O)[O-])cc2)SC(=S)N1CN(CCCl)CCCl | 284 |
| Nc1ccc(OCCCCCN2C(=O)c3ccccc3C2=O)cc1 | 113 |
